The results in this text go back to patent US8987249B2, “Substituted 2-Aza-bicyclo[2.2.1]heptane-3-carboxylic acid (benzyl-cyano-methyl)-amides inhibitors of Cathepsin C” (Boehringer Ingelheim International GmbH, priority 2013, dated 2015).

Molecules are shown by their SMILES.

Chain of recombinant human DPPI (Cathepsin C) (P53634 231-394): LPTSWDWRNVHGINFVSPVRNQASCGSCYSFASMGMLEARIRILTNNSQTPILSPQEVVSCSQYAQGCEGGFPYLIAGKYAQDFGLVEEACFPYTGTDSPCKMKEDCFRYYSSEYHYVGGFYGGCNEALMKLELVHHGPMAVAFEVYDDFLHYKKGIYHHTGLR
Chain of recombinant human DPPI (Cathepsin C) (P53634 395-463): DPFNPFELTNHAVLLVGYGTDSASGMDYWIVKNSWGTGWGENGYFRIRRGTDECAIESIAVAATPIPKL
Chain of recombinant human DPPI (Cathepsin C) (P53634 25-134): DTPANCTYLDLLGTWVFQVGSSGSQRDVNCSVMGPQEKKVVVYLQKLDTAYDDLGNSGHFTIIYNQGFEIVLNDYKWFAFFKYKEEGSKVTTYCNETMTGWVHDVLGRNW

The test concerns the target recombinant human DPPI (Cathepsin C) (Homo sapiens (Human), UniProt P53634). Kind of test: Inhibition of human DPPI (Cathepsin C). It is filed as biochemical. As to conditions: substrate Gly-Arg-AMC. How it is done: Inhibition of Human DPPI (Cathepsin C)
Bovine serum albumin (BSA; Prod. No. A3059) and Dithiothreitol (DTT; Prod. No D0632) were from Sigma. […] The DPP1 inhibitor Gly-Phe-DMK was purchased from MP Biomedicals (Prod.-No. 03DK00625). The recombinant human DPPI was purchased from Prozymex. All other materials were of highest grade commercially available.
The following buffers were used: MES buffer: 25 mM MES, 50 mM NaCl, 5 mM DTT, adjusted to pH 6.0, containing 0.1% BSA; TAGZyme Buffer: 20 mM NaH2PO4, 150 mM NaCl adjusted to pH 6.0 with HCl
Then, 5 μL of substrate in MES buffer (final concentration 50 μM) were added. The microtiter plates were then incubated at room temperature for 30 min. Then, the reaction was stopped by adding 10 μL of Gly-Phe-DMK in MES-buffer (final concentration 1 μM).
The analysis of the data was performed by calculating the percentage of fluorescence in the presence of test compound in comparison to the fluorescence of the vehicle control after subtracting the background fluorescence using the following formula: (RFU(sample)−RFU(background))*100/(RFU(control)−RFU(background))
Data from these calculations were used to generate IC50 values for inhibition of DPPI, respectively.
As for `N#CC(Cc1ccc2[nH]ncc2c1)NC(=O)[C@H]1N[C@@H]2CC[C@H]1C2` (stereo partly drawn) [Example 8, (1S,2S,4R)—N-[1-cyano-2-(1H-indazol-5-yl)ethyl]-3-azabicyclo[2.2.1]heptane-2-carboxamide], the half-inhibitory concentration (IC50) (in general, the point on the concentration scale where inhibition reaches its midpoint) is 679 nM. The figure for `CN1CC2CCN(c3ccc(C[C@@H](C#N)NC(=O)[C@H]4N[C@@H]5CC[C@H]4C5)c(F)c3)C2C1` (stereo partly drawn) [Example 353] is 6.5 nM. As for `N#C[C@H](Cc1ccc(C2CCCN(C3CCOC3)C2)cc1F)NC(=O)[C@H]1N[C@@H]2CC[C@H]1C2` (stereo partly drawn) [Example 338], the figure is 44.3 nM; as for `N#CC(Cc1ccc2c(c1)CCc1ccccc1-2)NC(=O)[C@H]1N[C@@H]2CC[C@H]1C2` (stereo partly drawn) [Example 209], 45.8 nM. The figure for `CN1CCCN(S(=O)(=O)c2ccc(-c3ccc(C[C@@H](C#N)NC(=O)[C@H]4N[C@@H]5CC[C@H]4C5)c(F)c3)cc2)CC1` [Example 340] is 1.8 nM; for `CN1C(=O)Cc2ccc(-c3ccc(CC(C#N)NC(=O)[C@H]4N[C@@H]5CC[C@H]4C5)c(O)c3)cc21` (stereo partly drawn) [Example 120] it is 55.6 nM; for `N#C[C@H](Cc1ccc2c(c1F)CCC(N1CCOCC1)C2)NC(=O)[C@H]1N[C@@H]2CC[C@H]1C2` (stereo partly drawn) [Example 351] it is 82.8 nM.

For `N#CC(Cc1ccc2cn[nH]c2c1)NC(=O)[C@H]1N[C@@H]2CC[C@H]1C2` (stereo partly drawn) [Example 127], the IC50 was 860 nM. As for `N#Cc1ccc(-c2ccc(C[C@@H](C#N)NC(=O)[C@H]3N[C@H]4C[C@@H]3[C@@H]3C[C@@H]34)c(F)c2)cn1` [Example 142], the figure is 63.1 nM. Turning to `CCOc1cc(-c2ccc(C[C@@H](C#N)NC(=O)[C@H]3N[C@@H]4CC[C@H]3C4)c(F)c2)cc(S(C)(=O)=O)c1` [Example 275], the IC50 was 33 nM.

On to `CCOC(=O)c1ccc(-c2ccc(C[C@@H](C#N)NC(=O)[C@H]3N[C@@H]4CC[C@H]3C4)c(F)c2)s1` [Example 179], for which the IC50 stood at 7.5 nM. As for `N#CC(Cc1ccc2c(cnc3ccccc32)c1)NC(=O)[C@H]1N[C@@H]2CC[C@H]1C2` (stereo partly drawn) [Example 316], the IC50 is 42.4 nM.

Turning to `COCC(=O)n1cc(-c2ccc(C[C@@H](C#N)NC(=O)[C@H]3N[C@@H]4CC[C@H]3C4)c(F)c2)cn1` [Example 87], the IC50 came to 14.2 nM.

For the compound `N#C[C@H](Cc1ccc(-c2cnc(C3CC3)s2)cc1F)NC(=O)[C@H]1N[C@@H]2CC[C@H]1C2` [Example 173], the IC50 stood at 5.5 nM. The figure for `COC(=O)c1cc(C)c(-c2ccc(C[C@@H](C#N)NC(=O)[C@H]3N[C@@H]4CC[C@H]3C4)c(F)c2)s1` [Example 198] is 15.8 nM; for `N#C[C@H](Cc1ccc(-c2ccc(S(=O)(=O)N3CCCCC3)cc2)cc1F)NC(=O)[C@H]1N[C@@H]2CC[C@H]1C2` [Example 177] it is 7.4 nM; for `COCCN1CCC(c2ccc(C[C@@H](C#N)NC(=O)[C@H]3N[C@@H]4CC[C@H]3C4)c(F)c2)C1` (stereo partly drawn) [Example 350] it is 38.6 nM. Regarding `CN(C)CCn1ccc(-c2ccc(C[C@@H](C#N)NC(=O)[C@H]3N[C@@H]4CC[C@H]3C4)c(F)c2)cc1=O` [Example 256], the IC50 was 26.3 nM. Turning to `N#Cc1ccc2c(c1)[nH]c(=O)c1cc(CC(C#N)NC(=O)[C@H]3N[C@@H]4CC[C@H]3C4)ccc12` (stereo partly drawn) [Example 309], the half-maximal inhibitory concentration (IC50) worked out at 9.1 nM. As for `Cn1cc(-c2ccc(C[C@@H](C#N)NC(=O)[C@H]3N[C@@H]4CC[C@H]3C4)c(F)c2)cn1` [Example 163], the figure is 2.1 nM; as for `CN1CCN(c2ccc(F)c(C[C@@H](C#N)NC(=O)[C@H]3N[C@@H]4CC[C@H]3C4)c2)CC1` [Example 318], 212 nM. In the case of `CN(C)C(=O)c1cc(-c2ccc(C[C@@H](C#N)NC(=O)[C@H]3N[C@@H]4CC[C@H]3C4)c(F)c2)cs1` [Example 170], the IC50 came to 4.2 nM.

Take `N#C[C@H](Cc1ccc(N2CCN(C3CCOCC3)CC2)cc1F)NC(=O)[C@H]1N[C@@H]2CC[C@H]1C2` [Example 336]: the half-inhibitory concentration (IC50) worked out at 24.5 nM. As for `N#C[C@H](Cc1ccc(-c2csc(C(=O)N3CCn4nccc4C3)c2)cc1F)NC(=O)[C@H]1N[C@@H]2CC[C@H]1C2` [Example 226], the figure is 0.9 nM.
